We go through one substance from patent publication US20240226234A1, “WNT5A PEPTIDES FOR THE TREATMENT OF ACUTE M[…]” (W[…], priority 2021, published 2024).

No end group written: not given here. *: point of attachment. For = O=C*

The test system of one data set is U937 xenografts. Description: U937 xenograft mouse model, tumour growth. Format: in vivo. As to conditions: NOD/SCID mice, Foxy-5 40 μg/μL i.p. once every 2 days. From the text:
The control group received equal amounts of vehicle solution.

The test system of another data set is HL60 cells. Description: Cell cycle assay, HL60 cells. As to conditions: 72 h. Format: cell-based, human. On the procedure: (§1) A panel of human myeloid leukemia cell lines (HL60, K562, KG1a, THP1 and U937) and HS-5 mesenchymal stromal cells lineage were cultured in Roswell Park Memorial Institute medium-1640 (RPMI; Sigma) containing 10% Fetal Bovine Serum (Gibco), glutamine (2 mM; Sigma), penicillin (100 μg/mL; Sigma), streptomycin (100 μg/mL; Sigma), and amphotericin B (0.25 μg/mL; Gibco). The cells were maintained in a humidified atmosphere at 37° C. and 5% CO2 and the experiments were performed when they reached exponential growth. For the assays, cells were seeded on a 24-well plate and treated or not with Foxy-5 for 72 hours.
Cells treated with Foxy or with vehicle were collected and fixed, at least, 24 hours in 70% ethanol. DNA was stained with a buffer containing iodide propidium (20 μg/mL; Sigma) and RNase A (10 μg/mL; Sigma). Cell fluorescence was detected with a FACSCalibur flow cytometer (BD). The proportions of cells in the cell cycle phases were analyzed by Modifit (Verify Software House Inc), according to DNA distributions.
As we observed a reduction in the leukemic proliferation after Foxy-5 treatment, we also analyzed the cell cycle phases. Leukemia cell lines were treated for 72 hours with Foxy-5, at doses of 50 μM and 100 μM, or vehicle, stained with the Piper buffer containing RNAse and iodeto propidium and then analyzed by flow cytometry.

Another data set deals with K562 cells. Nature of the data set: Autophagy assay (acridine orange), K562 cells. Format: cell-based, human. As to conditions: K562, 2D culture, 72 h. As to the method:
as §1
Cells treated with Foxy or with vehicle were collected and acids vesicles were measured by flow cytometry following staining with Acridine Orange (0.01 mg/mL; Sigma). Acquisition of cells was performed on a FACScalibur flow cytometer (BD) and analysis was carried out using the FlowJo software 4.
As autophagy is required for sustaining leukemia cell growth by induction of ROS production, we measured the levels of acidic granule formation by flow cytometry after Foxy-5 or vehicle treatment. […]

The conditions of data set [1]: NOD/SCID mice, U937 xenograft, Foxy-5 vs vehicle, after 9 days.
Method: For the xenograft mouse model, a concentration of 40 μg/μL of Foxy-5 was used. […] Mice were anesthetized with isoflurane (4%) and U937 cells (5,000,000 cells/mouse) were inoculated in the mouse dorsal region by subcutaneous injection. When the tumours reached 100 mm^3, the treatment was initiated. Foxy-5 was administered once every 2 days by intraperitoneal injection. The control group received equal amounts of vehicle solution. The tumour volumes were measured every 2 days and evaluated according to the formula: tumour volume (mm^3) ¼ (length×width^2)/2. After 9 days, the mice were sacrificed, the tumour excised and tumour dimensions (tumour volume (mm^3) and tumour weight (grams, g)) were evaluated.

Consider “Foxy-5: Formylated hexapeptide fragment of WNT5A: MDGCEL (SEQ. ID. NO. 3) with methionine in position 1 as N-formyl methionine; WNT5A-mimicking compound (For-MDGCEL; listed as Homo sapiens)”, for which the “tumour volume (median)” value with U937 xenografts (9 days) stood at 469 mm^3. In the data set on U937 xenografts (vs control group at day 9), the “inhibition of tumour growth” value came out at 55.46%. Besides, the “inhibition of tumour weight” value in the data set on U937 xenografts (vs control group at day 9) is reported as 45.51%. The “cells in G0/G1 cell cycle phase (average)” value came out at 53.47% in the data set with HL60 cells (HL60, co-cultured with HS5 stromal cells, Foxy-5 50 μM); 70.68% in the data set with HL60 cells (HL60, co-cultured with HS5 stromal cells, Foxy-5 100 μM); 51.57% with HL60 cells (HL60, monoculture, Foxy-5 50 μM); 53.02% with HL60 cells (HL60, monoculture, Foxy-5 100 μM). Besides, the “autophagy (acidic granule formation, acridine orange, average)” value was 21.32 (range 20.46-22.28) MFI in the data set with K562 cells (Foxy-5 50 μM) and 19.80 (range 19.70-20.40) MFI with K562 cells (Foxy-5 100 μM). Further, the “body weights of the xenograft mice” value in data set [1] is listed as “did not vary significantly”.
